The values below come from patent US20110053983A1, “(5R)-1,5-DIARYL-4,5-DIHYDRO-1H-PYRAZOLE-3-CARBOXAMIDINE DERIVATIVES HAVING CB1-ANTAGONISTIC ACTIVITY” (priority 2008, published 2011).

“Also recorded” adds a separate entry of the source. Read-outs that look alike come from different tables or passages of the source.

The target in one data set is T1, cannabinoid-CB1 receptor (Rattus norvegicus, UniProt P20272).
T1 construct: Male normotensive rats (225-300 g; Harlan, Horst, The Netherlands) were anaesthetized; from tissue; host or cells: whole animal: male normotensive rats (Harlan)
T1 sequence (P20272 whole entry): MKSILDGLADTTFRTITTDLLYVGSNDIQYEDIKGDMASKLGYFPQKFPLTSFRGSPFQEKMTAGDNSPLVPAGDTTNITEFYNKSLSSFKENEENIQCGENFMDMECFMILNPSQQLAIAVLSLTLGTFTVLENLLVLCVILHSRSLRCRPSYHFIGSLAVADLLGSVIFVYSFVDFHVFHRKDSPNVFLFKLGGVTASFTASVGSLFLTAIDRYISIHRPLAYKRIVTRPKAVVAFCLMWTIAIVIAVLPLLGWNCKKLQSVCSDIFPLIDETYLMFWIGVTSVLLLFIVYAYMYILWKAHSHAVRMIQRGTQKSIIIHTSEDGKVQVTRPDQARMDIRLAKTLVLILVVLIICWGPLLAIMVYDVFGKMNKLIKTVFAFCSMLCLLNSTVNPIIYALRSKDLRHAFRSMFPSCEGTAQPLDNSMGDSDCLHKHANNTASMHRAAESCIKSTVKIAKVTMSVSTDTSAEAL
In words: In vivo CB1 receptor antagonism, CP-55,940-induced hypotension test. Particulars: for ED50: po, CP-55,940 (0.1 mg/kg i.v.) induced hypotension, read-out: CB-agonist induced blood pressure rat ID50; for activity in the in vivo CB1 mediated (CP-55,940-induced) hypotension test, in words: oral administration. The method, then:
In vivo cannabinoid-CB1 receptor antagonism was assessed with the CP-55,940-induced hypotension test in rat. Male normotensive rats (225-300 g; Harlan, Horst, The Netherlands) were anaesthetized with pentobarbital (80 mg/kg ip). Blood pressure was measured, via a cannula inserted into the left carotid artery, by means of a Spectramed DTX-plus pressure transducer (Spectramed B. V., Bilthoven, The Netherlands). After amplification by a Nihon Kohden Carrier Amplifier (Type AP-621G; Nihon Kohden B. V., Amsterdam, The Netherlands), the blood pressure signal was registered on a personal computer (Compaq Deskpro 386s), by means of a Po-Ne-Mah data-acquisition program (Po-Ne-Mah Inc., Storrs, USA). Heart rate was derived from the pulsatile pressure signal. All compounds were administered orally as a microsuspension in 1% methylcellulose, 30 minutes before induction of the anesthesia, 60 minutes prior to administration of the CB1 receptor agonist CP-55,940. The injection volume was 10 ml/kg. After haemodynamic stabilization the CB1 receptor agonist CP-55,940 (0.1 mg/kg i. v.) was administered and the hypotensive effect established (Wagner, 2001).

For data set [1], the target named is human cannabinoid CB1 receptor (Homo sapiens, UniProt P21554). In words: In vitro affinity for cannabinoid-CB1 receptors, displacement of [3H]CP-55,940. The data set is classed as binding. The method, then:
In vitro affinity for cannabinoid-CB1 receptors was determined using membrane preparations of Chinese hamster ovary (CHO) cells wherein the human cannabinoid CB1 receptor was stably transfected in conjunction with [^3H]CP-55,940 as radioligand. After incubation of a freshly prepared cell membrane preparation with the [^3H]-ligand, with or without addition of compounds of the invention, separation of bound and free ligand was performed by filtration over glassfiber filters. Radioactivity on the filter was measured by liquid scintillation counting. The binding data were either obtained by CEREP (128, rue Danton, 92500 Rueil-Malmaison, France) or at Solvay Pharmaceuticals B.V. (C. J. van Houtenlaan 36, 1381 C P Weesp, The Netherlands).

Another data set addresses human CB1 receptors (Homo sapiens, UniProt P21554). In words: In vitro CB1 receptor antagonism, inhibition of WIN 55,212-2-induced [3H]-arachidonic acid release in CHO cells. The class given is cell-based. The note with it: for Kb: read-out: functional activity inhibition AA release [3H]-Arachidonic acid pA2 (converted). The method, then: In vitro cannabinoid-[…] receptor antagonism was assessed with human CB1 receptors cloned in Chinese hamster ovary (CHO) cells. CHO cells were grown in a Dulbecco's Modified Eagle's medium (DMEM) culture medium, supplemented with 10% heat-inactivated fetal calf serum. Medium was aspirated and replaced by DMEM, without fetal calf serum, but containing [^3H]-arachidonic acid and incubated overnight in a cell culture stove (5% CO2/95% air; 37° C.; water-saturated atmosphere). During this period [^3H]-arachidonic acid was incorporated in membrane phospholipids. On the test day, medium was aspirated and cells were washed three times using 0.5 mL DMEM, containing 0.2% bovine serum albumin (BSA). Stimulation of the CB1 receptor by WIN 55,212-2 lead to activation of PLA2 followed by release of [^3H]-arachidonic acid into the medium. This WIN 55,212-2-induced release was concentration-dependently antagonized by CB1 receptor antagonists.

Setting [2] is: h-CB1 receptor, CHO cell membranes, read-out: receptor binding displacement [3H]-CP-55,940 pKi (converted).
Where [3] appears, read: (5R) versus (5S)-enantiomer (compound 2).
Where [4] appears, read: h-CB1 receptor in CHO cells, WIN 55,212-2-induced release.

Chain of human cannabinoid CB1 receptor (P21554 whole entry): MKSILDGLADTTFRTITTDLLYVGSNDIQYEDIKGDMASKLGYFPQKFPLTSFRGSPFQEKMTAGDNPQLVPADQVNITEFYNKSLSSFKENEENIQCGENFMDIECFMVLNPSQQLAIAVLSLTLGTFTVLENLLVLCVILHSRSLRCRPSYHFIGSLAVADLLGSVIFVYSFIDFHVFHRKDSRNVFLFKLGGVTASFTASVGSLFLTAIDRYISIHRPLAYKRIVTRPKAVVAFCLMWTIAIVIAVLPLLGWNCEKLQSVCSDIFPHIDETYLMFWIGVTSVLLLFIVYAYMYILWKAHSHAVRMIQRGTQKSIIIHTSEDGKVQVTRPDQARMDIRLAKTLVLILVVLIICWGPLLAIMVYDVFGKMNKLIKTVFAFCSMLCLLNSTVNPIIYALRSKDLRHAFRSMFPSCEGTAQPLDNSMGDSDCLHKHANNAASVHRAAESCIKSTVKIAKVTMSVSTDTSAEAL
Chain of human CB1 receptors (P21554 whole entry): as above

As for `CN/C(=N\S(=O)(=O)N1CCCCC1)C1=NN(c2ccc(Cl)cc2)C(c2ccccc2)C1` (racemic) [N-[(piperidin-1-yl)-sulfonyl]-N′-methyl-1-(4-chlorophenyl)-5-phenyl-4,5-dihydro-(1H)-pyrazole-3-carboxamidine, reference compound], the ED50 on cannabinoid-CB1 receptor was above 30 mg/kg.
One may read the melting point as the temperature, or range, at which the solid turns liquid. The compound `CN=C(NS(=O)(=O)N1CCC(F)(F)CC1)C1=NN(c2ccc(Cl)cc2)C(c2ccccc2F)C1` (racemic) [racemate 2, N-[(4,4-difluoropiperidin-1-yl)sulfonyl]-N′-methyl-1-(4-chlorophenyl)-5-(2-fluorophenyl)-4,5-dihydro-(1H)-pyrazole-3-carboxamidine] displayed a melting point of 166 to 167 °C.
Consider `CN=C(NS(=O)(=O)N1CCC(F)(F)CC1)C1=NN(c2ccc(Cl)cc2)C(c2ccccc2)C1` (racemic) [racemate (1 + 2), N-[(4,4-difluoropiperidin-1-yl)sulfonyl]-N′-methyl-1-(4-chlorophenyl)-5-phenyl-4,5-dihydro-(1H)-pyrazole-3-carboxamidine], for which, in data set [1] (setting [2]), the Ki was 25.1 nM. For the same compound, at cannabinoid-CB1 receptor, the “activity in the in vivo CB1 mediated (CP-55,940-induced) hypotension test, in words” value (“activity in the in vivo CB1 mediated” below) is on record as “potent activities” and the ED50 stood at 9 mg/kg.
In the case of `CN/C(=N\S(=O)(=O)N1CCC(F)(F)CC1)C1=NN(c2ccc(Cl)cc2)[C@@H](c2ccccc2)C1` (single isomer, unassigned) [Compound 1], in data set [1] (setting [3]), the “affinity for human CB1 receptors relative to the (5S)-enantiomer” value turned out to be 25 fold. Moreover, in data set [1] (setting [2]), the Ki was 10 nM. Besides, at human CB1 receptors (setting [3]), the “antagonist potency (pA2) relative to the (5S)-enantiomer” value turned out to be 40 times. Further, on human CB1 receptors (setting [4]), the Kb was 1.58 nM. Besides, on cannabinoid-CB1 receptor, the “activity in the in vivo CB1 mediated” value is listed as “active; also recorded: potent activities” and the ED50 amounted to 6 mg/kg.
For the compound `CN/C(=N\S(=O)(=O)N1CCC(F)(F)CC1)C1=NN(c2ccc(Cl)cc2)[C@H](c2ccccc2)C1` (single isomer, unassigned) [Compound 2], the Ki in data set [1] (setting [2]) was 251 nM. In addition, the Kb at human CB1 receptors (setting [4]) was 79.4 nM. For the same compound, on cannabinoid-CB1 receptor, the “activity in the in vivo CB1 mediated” value is “inactive” and the ED50 was above 30 mg/kg.
Turning to `CN/C(=N\S(=O)(=O)N1CCC(F)CC1)C1=NN(c2ccc(Cl)cc2)[C@@H](c2ccccc2)C1` [Compound 3, 5R-(+)-N-[(4-fluoropiperidin-1-yl)sulfonyl]-N′-methyl-1-(4-chlorophenyl)-5-phenyl-4,5-dihydro-(1H)-pyrazole-3-carboxamidine], the Ki in data set [1] (setting [2]) was 15.8 nM.
Compound `CN/C(=N\S(=O)(=O)N1CCC(C(F)(F)F)CC1)C1=NN(c2ccc(Cl)cc2)[C@@H](c2ccccc2)C1` [Compound 4, 5R-(+)-N-[(4-(trifluoromethyl)piperidin-1-yl)sulfonyl]-N′-methyl-1-(4-chlorophenyl)-5-phenyl-4,5-dihydro-(1H)-pyrazole-3-carboxamidine] showed a Ki in data set [1] of 3.16 nM. Moreover, on human CB1 receptors (setting [4]), the “functional activity inhibition AA release [3H]-Arachidonic acid pA2” value stood at 9.5.
Regarding `CN/C(=N\S(=O)(=O)N1CCCCC1)C1=NN(c2ccc(Cl)cc2)C(c2ccccc2)C1` (stereo not shown) [EP 1 713 475 Compound 10, reference compound], the ED50 at cannabinoid-CB1 receptor was above 30 mg/kg.
